Data published in the supplement of paper PMC10307832.

Columns and labels:
Test in all cases: relative viability (nuclei count vs DMSO), 5 days (fraction); higher = more cells survive
COR-L23 = system: COR-L23
How it was run: (§1)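 Lung cancer cell lines were pin-tool dosed in 1536-well plates on the day after seeding, with either a lone drug or a fixed anchor-drug dose plus five library-drug doses (not always all listed) in √10 steps. Nuclei were counted on 4× images after 5 days. Relative viability is the ratio of treated-well to vehicle-well nuclei counts, with each value a median of duplicate plates.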

EMC-BAC-2 = system: EMC-BAC-2
How it was run: as §1

EPLC-272H = system: EPLC-272H
How it was run: as §1

H3255 = system: H3255
How it was run: as §1

HCC-44 = system: HCC-44
How it was run: as §1

HCC-827 = system: HCC-827
How it was run: as §1

LCLC-103H = system: LCLC-103H
How it was run: as §1

LU99A = system: LU99A
How it was run: as §1

NCI-H1395 = system: NCI-H1395
How it was run: as §1

NCI-H1563 = system: NCI-H1563
How it was run: as §1

NCI-H1651 = system: NCI-H1651
How it was run: as §1

NCI-H1793 = system: NCI-H1793
How it was run: as §1

NCI-H1944 = system: NCI-H1944
How it was run: as §1

NCI-H2023 = system: NCI-H2023
How it was run: as §1

NCI-H2085 = system: NCI-H2085
How it was run: as §1

NCI-H2087 = system: NCI-H2087
How it was run: as §1

NCI-H2405 = system: NCI-H2405
How it was run: as §1

NCI-H520 = system: NCI-H520
How it was run: as §1

NCI-H650 = system: NCI-H650
How it was run: as §1

NCI-H838 = system: NCI-H838
How it was run: as §1

SK-MES-1 = system: SK-MES-1
How it was run: as §1

SMILES: O=c1cc(N2CCOCC2)oc2c(-c3cccc4c3sc3ccccc34)cccc12 + Cc1nc(NC(=O)N2CCC[C@H]2C(N)=O)sc1-c1ccnc(C(C)(C)C(F)(F)F)c1 [Alpelisib] (partner 2 µM)
- relative viability (COR-L23; first compound 0.01 µM): 0.871
- relative viability (COR-L23; first compound 0.03162 µM): 0.718
- relative viability (COR-L23; first compound 0.1 µM): 0.922
- relative viability (COR-L23; first compound 0.3162 µM): 0.795
- relative viability (COR-L23; first compound 1 µM): 0.753
- relative viability (EMC-BAC-2; first compound 0.01 µM): 0.726
- relative viability (EMC-BAC-2; first compound 0.03162 µM): 0.781
- relative viability (EMC-BAC-2; first compound 0.1 µM): 0.813
- relative viability (EMC-BAC-2; first compound 0.3162 µM): 0.759
- relative viability (EMC-BAC-2; first compound 1 µM): 0.722
- relative viability (EPLC-272H; first compound 0.01 µM): 0.955
- relative viability (EPLC-272H; first compound 0.03162 µM): 0.957
- relative viability (EPLC-272H; first compound 0.3162 µM): 1.03
- relative viability (EPLC-272H; first compound 1 µM): 0.891
- relative viability (H3255; first compound 0.01 µM): 0.681
- relative viability (H3255; first compound 0.03162 µM): 0.698
- relative viability (H3255; first compound 0.1 µM): 0.784
- relative viability (H3255; first compound 0.3162 µM): 0.685
- relative viability (H3255; first compound 1 µM): 0.768
- relative viability (HCC-44; first compound 0.01 µM): 0.841
- relative viability (HCC-44; first compound 0.03162 µM): 0.841
- relative viability (HCC-44; first compound 0.1 µM): 0.826
- relative viability (HCC-44; first compound 0.3162 µM): 0.708
- relative viability (HCC-44; first compound 1 µM): 0.697
- relative viability (HCC-827; first compound 0.01 µM): 0.918
- relative viability (HCC-827; first compound 0.03162 µM): 0.931
- relative viability (HCC-827; first compound 0.1 µM): 0.911
- relative viability (HCC-827; first compound 0.3162 µM): 0.947
- relative viability (HCC-827; first compound 1 µM): 0.914
- relative viability (LCLC-103H; first compound 0.01 µM): 0.904
- relative viability (LCLC-103H; first compound 0.03162 µM): 0.924
- relative viability (LCLC-103H; first compound 0.1 µM): 1.03
- relative viability (LCLC-103H; first compound 0.3162 µM): 1.03
- relative viability (LCLC-103H; first compound 1 µM): 0.93
- relative viability (LU99A; first compound 0.01 µM): 0.595
- relative viability (LU99A; first compound 0.03162 µM): 0.532
- relative viability (LU99A; first compound 0.1 µM): 0.521
- relative viability (LU99A; first compound 0.3162 µM): 0.598
- relative viability (LU99A; first compound 1 µM): 0.571
- relative viability (NCI-H1395; first compound 0.01 µM): 1.1
- relative viability (NCI-H1395; first compound 0.03162 µM): 0.976
- relative viability (NCI-H1395; first compound 0.1 µM): 0.989
- relative viability (NCI-H1395; first compound 0.3162 µM): 1.09
- relative viability (NCI-H1395; first compound 1 µM): 0.956
- relative viability (NCI-H1563; first compound 0.01 µM): 0.917
- relative viability (NCI-H1563; first compound 0.03162 µM): 0.858
- relative viability (NCI-H1563; first compound 0.1 µM): 0.93
- relative viability (NCI-H1563; first compound 0.3162 µM): 0.833
- relative viability (NCI-H1563; first compound 1 µM): 0.844
- relative viability (NCI-H1651; first compound 0.01 µM): 0.924
- relative viability (NCI-H1651; first compound 0.03162 µM): 0.952
- relative viability (NCI-H1651; first compound 0.1 µM): 1.04
- relative viability (NCI-H1651; first compound 0.3162 µM): 0.968
- relative viability (NCI-H1651; first compound 1 µM): 1.01
- relative viability (NCI-H1793; first compound 0.01 µM): 0.607
- relative viability (NCI-H1793; first compound 0.03162 µM): 0.866
- relative viability (NCI-H1793; first compound 0.1 µM): 0.7
- relative viability (NCI-H1793; first compound 0.3162 µM): 0.705
- relative viability (NCI-H1793; first compound 1 µM): 0.484
- relative viability (NCI-H1944; first compound 0.01 µM): 0.814
- relative viability (NCI-H1944; first compound 0.03162 µM): 0.833
- relative viability (NCI-H1944; first compound 0.1 µM): 0.82
- relative viability (NCI-H1944; first compound 0.3162 µM): 0.847
- relative viability (NCI-H1944; first compound 1 µM): 0.801
- relative viability (NCI-H2023; first compound 0.01 µM): 0.653
- relative viability (NCI-H2023; first compound 0.03162 µM): 0.621
- relative viability (NCI-H2023; first compound 0.1 µM): 0.618
- relative viability (NCI-H2023; first compound 0.3162 µM): 0.532
- relative viability (NCI-H2023; first compound 1 µM): 0.487
- relative viability (NCI-H2085; first compound 0.01 µM): 0.941
- relative viability (NCI-H2085; first compound 0.03162 µM): 0.902
- relative viability (NCI-H2085; first compound 0.1 µM): 1.02
- relative viability (NCI-H2085; first compound 0.3162 µM): 0.919
- relative viability (NCI-H2085; first compound 1 µM): 0.983
- relative viability (NCI-H2087; first compound 0.01 µM): 1.12
- relative viability (NCI-H2087; first compound 0.03162 µM): 1.02
- relative viability (NCI-H2087; first compound 0.1 µM): 1.13
- relative viability (NCI-H2087; first compound 0.3162 µM): 1.23
- relative viability (NCI-H2087; first compound 1 µM): 1.16
- relative viability (NCI-H2405; first compound 0.01 µM): 0.895
- relative viability (NCI-H2405; first compound 0.03162 µM): 0.885
- relative viability (NCI-H2405; first compound 0.1 µM): 0.838
- relative viability (NCI-H2405; first compound 0.3162 µM): 0.835
- relative viability (NCI-H2405; first compound 1 µM): 0.827
- relative viability (NCI-H520; first compound 0.01 µM): 0.997
- relative viability (NCI-H520; first compound 0.03162 µM): 1.09
- relative viability (NCI-H520; first compound 0.1 µM): 0.915
- relative viability (NCI-H520; first compound 0.3162 µM): 0.841
- relative viability (NCI-H520; first compound 1 µM): 0.996
- relative viability (NCI-H650; first compound 0.01 µM): 1.06
- relative viability (NCI-H650; first compound 0.03162 µM): 1.15
- relative viability (NCI-H650; first compound 0.3162 µM): 1.21
- relative viability (NCI-H650; first compound 1 µM): 1.09
- relative viability (NCI-H838; first compound 0.01 µM): 0.961
- relative viability (NCI-H838; first compound 0.03162 µM): 0.99
- relative viability (NCI-H838; first compound 0.1 µM): 1.03
- relative viability (NCI-H838; first compound 0.3162 µM): 1.02
- relative viability (NCI-H838; first compound 1 µM): 0.975
- relative viability (SK-MES-1; first compound 0.01 µM): 0.842
- relative viability (SK-MES-1; first compound 0.03162 µM): 0.839
- relative viability (SK-MES-1; first compound 0.1 µM): 0.867
- relative viability (SK-MES-1; first compound 0.3162 µM): 0.935
- relative viability (SK-MES-1; first compound 1 µM): 0.937
